# Results published in patent US9617602B2, “Methods and compositions for determining resistance to androgen receptor therapy” (Aragon Pharmaceuticals, Inc., priority 2012, dated 2017).
# System: LNCaP/AR(cs) cells
# Experiment: Endogenous gene transcriptional assay (real-time PCR of androgen responsive genes)
# Format: cell-based, human
# [1] = Table 4A, 1 nM R1881 or 30 μM compound, vehicle=1.00
# Method: Total RNA was isolated using the Aurum™ total RNA isolation kit (BIO-RAD, Hercules, Calif.). RNA (1 μg) was reverse transcribed using the iScript cDNA synthesis kit (BIO-RAD, Hercules, Calif.) to produce cDNA. Real-time PCR was performed using the Applied Biosystems 7900HT instrument and SYBR Green PCR Master Mix (Applied Biosystems, Foster City, Calif.). PCR reactions were performed in 6 μL according to the manufacturer's protocol and a thermocycle protocol of 95° C. for 10 minutes followed by 40 cycles of 95° C. for 15 seconds and 58° C. for 1 minute. Androgen responsive gene (PSA, SLUG, TMPRSS2, STEAP4, FKBP5, ORM1, NOV, FASN, NKX3.1, AMIGO2, BDNF, CAMK2N1, HPGD, NCAPD3, PLD1) expression was normalized to GAPDH expression and expressed relative to vehicle treatment of the parental cell line.
# Gene expression was normalized to GAPDH as described above.
smiles,measurement,setting,value
"CNC(=O)c1ccc(N2C(=S)N(c3ccc(C#N)c(C(F)(F)F)c3)C(=O)C2(C)C)cc1F [Enzalutamide, enzalutamide]","AMIGO2 expression, antagonist transcription","+1 nM R1881, 0.3 μM",0.49
same,"BDNF expression, antagonist transcription","+1 nM R1881, 0.3 μM",0.61
same,"CAM2KN1 expression, antagonist transcription","+1 nM R1881, 0.3 μM",0.04
same,"FASN expression, antagonist transcription","+1 nM R1881, 0.3 μM",1.30
same,"FKBP5 expression, antagonist transcription","+1 nM R1881, 0.3 μM",23.51
same,"HPGD expression, antagonist transcription","+1 nM R1881, 0.3 μM",99.16
same,"NCAPD3 expression, antagonist transcription","+1 nM R1881, 0.3 μM",23.74
same,"NKX3.1 expression, antagonist transcription","+1 nM R1881, 0.3 μM",7.70
same,"NOV expression, antagonist transcription","+1 nM R1881, 0.3 μM",0.11
same,"PLD1 expression, antagonist transcription","+1 nM R1881, 0.3 μM",0.02
same,"PSA expression, antagonist transcription","+1 nM R1881, 0.3 μM",22.76
same,"SLUG expression, antagonist transcription","+1 nM R1881, 0.3 μM",50.08
same,"STEAP4 expression, antagonist transcription","+1 nM R1881, 0.3 μM",585.81
same,"TMPRSS2 expression, antagonist transcription","+1 nM R1881, 0.3 μM",19.88
same,"AMIGO2 expression, antagonist transcription","+1 nM R1881, 1 μM",0.19
same,"BDNF expression, antagonist transcription","+1 nM R1881, 1 μM",0.28
same,"CAM2KN1 expression, antagonist transcription","+1 nM R1881, 1 μM",0.06
same,"FASN expression, antagonist transcription","+1 nM R1881, 1 μM",0.42
same,"FKBP5 expression, antagonist transcription","+1 nM R1881, 1 μM",5.64
same,"HPGD expression, antagonist transcription","+1 nM R1881, 1 μM",16.30
same,"NCAPD3 expression, antagonist transcription","+1 nM R1881, 1 μM",4.35
same,"NKX3.1 expression, antagonist transcription","+1 nM R1881, 1 μM",3.77
same,"NOV expression, antagonist transcription","+1 nM R1881, 1 μM",0.14
same,"PLD1 expression, antagonist transcription","+1 nM R1881, 1 μM",0.02
same,"PSA expression, antagonist transcription","+1 nM R1881, 1 μM",8.82
same,"SLUG expression, antagonist transcription","+1 nM R1881, 1 μM",10.20
same,"STEAP4 expression, antagonist transcription","+1 nM R1881, 1 μM",109.37
same,"TMPRSS2 expression, antagonist transcription","+1 nM R1881, 1 μM",7.72
same,"AMIGO2 expression, antagonist transcription","+1 nM R1881, 3 μM",0.48
same,"BDNF expression, antagonist transcription","+1 nM R1881, 3 μM",0.63
same,"CAM2KN1 expression, antagonist transcription","+1 nM R1881, 3 μM",0.27
same,"FASN expression, antagonist transcription","+1 nM R1881, 3 μM",0.71
same,"FKBP5 expression, antagonist transcription","+1 nM R1881, 3 μM",3.32
same,"HPGD expression, antagonist transcription","+1 nM R1881, 3 μM",13.19
same,"NCAPD3 expression, antagonist transcription","+1 nM R1881, 3 μM",3.14
same,"NKX3.1 expression, antagonist transcription","+1 nM R1881, 3 μM",6.72
same,"NOV expression, antagonist transcription","+1 nM R1881, 3 μM",0.61
same,"ORM1 expression, antagonist transcription","+1 nM R1881, 3 μM",257.85
same,"PLD1 expression, antagonist transcription","+1 nM R1881, 3 μM",0.13
same,"PSA expression, antagonist transcription","+1 nM R1881, 3 μM",11.75
same,"SLUG expression, antagonist transcription","+1 nM R1881, 3 μM",10.56
same,"STEAP4 expression, antagonist transcription","+1 nM R1881, 3 μM",74.44
same,"TMPRSS2 expression, antagonist transcription","+1 nM R1881, 3 μM",10.51
same,"AMIGO2 expression, antagonist transcription","+1 nM R1881, 10 μM",0.78
same,"BDNF expression, antagonist transcription","+1 nM R1881, 10 μM",0.99
same,"CAM2KN1 expression, antagonist transcription","+1 nM R1881, 10 μM",0.50
same,"FASN expression, antagonist transcription","+1 nM R1881, 10 μM",0.46
same,"FKBP5 expression, antagonist transcription","+1 nM R1881, 10 μM",1.41
same,"NKX3.1 expression, antagonist transcription","+1 nM R1881, 10 μM",4.70
same,"NOV expression, antagonist transcription","+1 nM R1881, 10 μM",1.00
same,"ORM1 expression, antagonist transcription","+1 nM R1881, 10 μM",43.91
same,"PLD1 expression, antagonist transcription","+1 nM R1881, 10 μM",0.42
same,"PSA expression, antagonist transcription","+1 nM R1881, 10 μM",6.59
same,"SLUG expression, antagonist transcription","+1 nM R1881, 10 μM",5.26
same,"STEAP4 expression, antagonist transcription","+1 nM R1881, 10 μM",13.61
same,"TMPRSS2 expression, antagonist transcription","+1 nM R1881, 10 μM",3.58
same,"AMIGO2 expression, antagonist transcription","+1 nM R1881, 30 μM",0.92
same,"BDNF expression, antagonist transcription","+1 nM R1881, 30 μM",1.12
same,"CAM2KN1 expression, antagonist transcription","+1 nM R1881, 30 μM",0.56
same,"FASN expression, antagonist transcription","+1 nM R1881, 30 μM",0.59
same,"FKBP5 expression, antagonist transcription","+1 nM R1881, 30 μM",1.50
same,"HPGD expression, antagonist transcription","+1 nM R1881, 30 μM",4.25
same,"NKX3.1 expression, antagonist transcription","+1 nM R1881, 30 μM",5.03
same,"NOV expression, antagonist transcription","+1 nM R1881, 30 μM",0.92
same,"ORM1 expression, antagonist transcription","+1 nM R1881, 30 μM",22.70
same,"PLD1 expression, antagonist transcription","+1 nM R1881, 30 μM",0.54
same,"PSA expression, antagonist transcription","+1 nM R1881, 30 μM",5.65
same,"SLUG expression, antagonist transcription","+1 nM R1881, 30 μM",5.22
same,"STEAP4 expression, antagonist transcription","+1 nM R1881, 30 μM",7.79
same,"TMPRSS2 expression, antagonist transcription","+1 nM R1881, 30 μM",4.62
same,FASN gene expression,[1],1.19
same,FKBP5 gene expression,[1],1.71
same,HPGD gene expression,[1],2.01
same,NKX3.1 gene expression,[1],2.51
same,ORM1 gene expression,[1],3.58
same,PLD1 gene expression,[1],0.65
same,PSA gene expression,[1],2.69
same,SLUG gene expression,[1],2.06
same,TMPRSS2 gene expression,[1],2.36
same,"AMIGO2 expression, agonist transcription","−R1881, 0.3 μM",0.68
same,"CAM2KN1 expression, agonist transcription","−R1881, 0.3 μM",0.80
